Measurements from PubChem BioAssay AID1963436 (Molecular Pharmacology Branch, DTP, NCI, 2024).

Test system: OVCAR-5 complex spheroid (HUVEC/MSC), viability % T/C
Assay: Anticancer human tumor OVCAR-5 cell line growth inhibition [Asc];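 also: spheroids exposed to agents for 7 days before readout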;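 as to viability, T/C: 100% = DMSO vehicle-treated wells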
Conditions: for IC50: curve of first compound; for viability, T/C: stronger effect = lower value
Experimental: Multicellular complex tumor spheroid response to apoptosis pathway targeting inhibitors Alrizomadlin, Pelcitoclax, and Dasminapant in combination with a variety of drugs and investigational agents in selected tumor cell lines
The MDM2 inhibitor alrizomadlin, the Bcl-2/Bcl-xL inhibitor pelcitoclax, and the IAPs inhibitor dasminapant were evaluated both individually and in combination with standard of care and investigational anticancer small molecules within a complex spheroid model of solid tumors. . Complex spheroids include a stromal component modeled by human endothelial cells (HUVEC) and fibroblasts modeled by human mesenchymal stem cells (MSCs). The concentration ranges selected for each drug and investigational agent were based upon clinically achievable concentrations if the clinical Cmax of the agent was known.
Compounds. The drugs and investigational agents: alrizomadlin (APG-115; NSC831270), pelcitoclax (APG-1252; NSC835773), dasminapant (APG-1387;NSC834197), TAK-243 (NSC785004), copanlisib (NSC809693), olaparib (NSC753686), talazoparib (NSC767125), cobimetinib (NSC 768068), eltanexor (KPT-8602, NSC 794443), abemaciclib (NSC 768073), sotorasib (NSC818433), adagrasib (NSC 831453), MRTX-1133 (NSC 836407), Iadademestat (ORY1001, NSC 806812), and RMC-4630 (NSC839698), were obtained from the NCI Developmental Therapeutics Program Chemical Repository. The FDA-approved anticancer drug set is available from the Developmental Therapeutics Program at https://dtp.cancer.gov/organization/dscb/obtaining/available plates.htm. […] The stock solutions were prepared in dimethyl sulfoxide (DMSO, Sigma-Aldrich, St. Louis, MO, cat. D2650) at 800-fold the tested concentration and stored at -70 degrees C prior to their use. All drugs and investigational agents were tested over a range starting from a high concentration at or near the clinical Cmax and decreasing in half-log increments. If the clinical Cmax for an agent had not been determined, the highest concentration tested was 10 microM.
The patient-derived cancer (PDC) cell lines include five colon adenocarcinomas: 186277-243-T-J2-PDC, 616215-338-R-J1-PDC, 439559-082-T-J2-PDC, 463943-066-T-J2-PDC, and 519858-162-T-J1-PDC; three pancreatic carcinomas: 323965-272-R-J2-PDC, 521955-158-R6-J3-PDC, and 521955-158-R2-J5-PDC; two uterine sarcomas: 327498-152-R-J2-PDC and 993429-296-R-J1-PDC; two rhabdomyosarcomas: 755483-174-R-J1-PDC and 772245-204-R-J1-PDC; two soft tissue sarcomas: 126254-015-R-J1-PDC and 494315-158-R-J1-PDC; two malignant fibrous histiocytomas: 317291-083-R-J1-PDC and 596521-263-R-J1-PDC; two breast carcinomas: 171881-019-R-J1-PDC and 885512-296-R-J2-PDC; and one ovarian carcinoma: 6556581-035-R-J-PDC were obtained from the NCI PDMR, (https://pdmr.cancer.gov). The established cell lines HSSY-2 synovial sarcoma (RRID:CVCL 8719), SYO-1 synovial sarcoma (RRID:CVCL_7146), MPNST malignant peripheral neural sheath tumor were obtained from the Sloan Kettering Institute. The following established cell lines were purchased from the American Type Culture Collection (ATCC, Manassas, VA), Sor the received from the NCI repository:, PANC-1 pancreatic carcinoma (CRL-1469, RRID:CVCL_0480), OVCAR-5 ovarian carcinoma (RRID:CVCL_1628), OVCAR-8 ovarian carcinoma (RRID:CVCL_1629), , MCF-7 breast carcinoma (CRL-12584, RRID:CVCL_0031), MDA-MB-231 breast carcinoma (CRL-12532, RRID:CVCL_0062), NCI-H1876 small cell lung carcinoma (CRL-5902, RRID:CVCL_1503), NCI-H510A small cell lung carcinoma (HTB-184, RRID:CVCL_1565), NCI-H1417 (CRL-5869, RRID:CVCL_1469), and NCI-H196 small cell lung carcinoma (CRL-5823, RRID:CVCL_1509). Dr. Peter Houghton (Greehey Children's Cancer Research Institute, University of Texas Health Science Center, San Antonio, TX) provided Rh-18 rhabdomyosarcoma (RRID:CVCL_1659). Pooled donor human umbilical vein endothelial cells (HUVEC, Lonza, cat. CC-2519) and human mesenchymal stem cells (hMSC, Lonza, cat. PT-2501) were purchased from Lonza (Walkersville, MD).
Cell Culture. […]

[1] = second compound 0.03 µM, first compound 0.00316 µM
[2] = second compound 0.03 µM, first compound 0.01 µM
[3] = second compound 0.03 µM, first compound 0.0316 µM
[4] = second compound 0.03 µM, first compound 0.1 µM
[5] = second compound 0.0949 µM, first compound 0.00316 µM
[6] = second compound 0.0949 µM, first compound 0.01 µM
[7] = second compound 0.0949 µM, first compound 0.0316 µM
[8] = second compound 0.0949 µM, first compound 0.1 µM
[9] = second compound 0.3 µM, first compound 0.00316 µM
[10] = second compound 0.3 µM, first compound 0.01 µM
[11] = second compound 0.3 µM, first compound 0.0316 µM
[12] = second compound 0.3 µM, first compound 0.1 µM
[13] = second compound 0.949 µM, first compound 0.00316 µM
[14] = second compound 0.949 µM, first compound 0.01 µM
[15] = second compound 0.949 µM, first compound 0.0316 µM
[16] = second compound 0.949 µM, first compound 0.1 µM
[17] = second compound 3 µM, first compound 0.00316 µM
[18] = second compound 3 µM, first compound 0.01 µM
[19] = second compound 3 µM, first compound 0.0316 µM
[20] = second compound 3 µM, first compound 0.1 µM

CCN1CCN(Cc2ccc(Nc3ncc(F)c(-c4cc(F)c5nc(C)n(C(C)C)c5c4)n3)nc2)CC1 + CCN1C(C(=O)NC23CCC(C(=O)O)(CC2)CC3)C(c2cccc(Cl)c2F)C2(C(=O)Nc3cc(Cl)ccc32)C12CCCCC2
IC50 (second compound 0.03 µM): > 1000 nM | IC50 (second compound 0.0949 µM): > 1000 nM | IC50 (second compound 0.3 µM): > 1000 nM | IC50 (second compound 0.949 µM): > 1000 nM | IC50 (second compound 3 µM): > 1000 nM | viability, T/C [1]: 85.1% | viability, T/C [2]: 93.5% | viability, T/C [3]: 68.1% | viability, T/C [4]: 64.7% | viability, T/C (second compound 0.03 µM, first compound 0.316 µM): 65.4% | viability, T/C (second compound 0.03 µM, first compound 1 µM): 56.5% | viability, T/C [5]: 98.2% | viability, T/C [6]: 91.8% | viability, T/C [7]: 67.2% | viability, T/C [8]: 66.1% | viability, T/C (second compound 0.0949 µM, first compound 0.316 µM): 61% | viability, T/C (second compound 0.0949 µM, first compound 1 µM): 62.8% | viability, T/C [9]: 102% | viability, T/C [10]: 86.5% | viability, T/C [11]: 77.7% | viability, T/C [12]: 59.9% | viability, T/C (second compound 0.3 µM, first compound 0.316 µM): 68.3% | viability, T/C (second compound 0.3 µM, first compound 1 µM): 62.4% | viability, T/C [13]: 85.9% | viability, T/C [14]: 92.3% | viability, T/C [15]: 74.2% | viability, T/C [16]: 65.1% | viability, T/C (second compound 0.949 µM, first compound 0.316 µM): 69.1% | viability, T/C (second compound 0.949 µM, first compound 1 µM): 62.4% | viability, T/C [17]: 106% | viability, T/C [18]: 99.1% | viability, T/C [19]: 85.4% | viability, T/C [20]: 65.6% | viability, T/C (second compound 3 µM, first compound 0.316 µM): 65.5% | viability, T/C (second compound 3 µM, first compound 1 µM): 64.2%

NC(=O)C(=Cn1cnc(-c2cc(C(F)(F)F)cc(C(F)(F)F)c2)n1)c1cncnc1 + CCN1C(C(=O)NC23CCC(C(=O)O)(CC2)CC3)C(c2cccc(Cl)c2F)C2(C(=O)Nc3cc(Cl)ccc32)C12CCCCC2
IC50 (second compound 0.03 µM): 299 nM | IC50 (second compound 0.0949 µM): > 300 nM | IC50 (second compound 0.3 µM): 256 nM | IC50 (second compound 0.949 µM): > 300 nM | IC50 (second compound 3 µM): 216 nM | viability, T/C (second compound 0.03 µM, first compound 0.000949 µM): 95.8% | viability, T/C (second compound 0.03 µM, first compound 0.003 µM): 85.5% | viability, T/C (second compound 0.03 µM, first compound 0.00949 µM): 82.1% | viability, T/C (second compound 0.03 µM, first compound 0.03 µM): 76.5% | viability, T/C (second compound 0.03 µM, first compound 0.0949 µM): 71.2% | viability, T/C (second compound 0.03 µM, first compound 0.3 µM): 48.1% | viability, T/C (second compound 0.0949 µM, first compound 0.000949 µM): 93.9% | viability, T/C (second compound 0.0949 µM, first compound 0.003 µM): 99.9% | viability, T/C (second compound 0.0949 µM, first compound 0.00949 µM): 81.9% | viability, T/C (second compound 0.0949 µM, first compound 0.03 µM): 67.3% | viability, T/C (second compound 0.0949 µM, first compound 0.0949 µM): 67.8% | viability, T/C (second compound 0.0949 µM, first compound 0.3 µM): 48.2% | viability, T/C (second compound 0.3 µM, first compound 0.000949 µM): 79.1% | viability, T/C (second compound 0.3 µM, first compound 0.003 µM): 95.8% | viability, T/C (second compound 0.3 µM, first compound 0.00949 µM): 86.9% | viability, T/C (second compound 0.3 µM, first compound 0.03 µM): 72% | viability, T/C (second compound 0.3 µM, first compound 0.0949 µM): 70.2% | viability, T/C (second compound 0.3 µM, first compound 0.3 µM): 46.7% | viability, T/C (second compound 0.949 µM, first compound 0.000949 µM): 103% | viability, T/C (second compound 0.949 µM, first compound 0.003 µM): 108% | viability, T/C (second compound 0.949 µM, first compound 0.00949 µM): 87.4% | viability, T/C (second compound 0.949 µM, first compound 0.03 µM): 81.4% | viability, T/C (second compound 0.949 µM, first compound 0.0949 µM): 66.2% | viability, T/C (second compound 0.949 µM, first compound 0.3 µM): 53.3% | viability, T/C (second compound 3 µM, first compound 0.000949 µM): 98.5% | viability, T/C (second compound 3 µM, first compound 0.003 µM): 96.7% | viability, T/C (second compound 3 µM, first compound 0.00949 µM): 80% | viability, T/C (second compound 3 µM, first compound 0.03 µM): 69.7% | viability, T/C (second compound 3 µM, first compound 0.0949 µM): 61.8% | viability, T/C (second compound 3 µM, first compound 0.3 µM): 45.4%

NC1CCC(NC2CC2c2ccccc2)CC1 (stereo not given) + CCN1C(C(=O)NC23CCC(C(=O)O)(CC2)CC3)C(c2cccc(Cl)c2F)C2(C(=O)Nc3cc(Cl)ccc32)C12CCCCC2
IC50 (second compound 0.03 µM): > 100 nM | IC50 (second compound 0.0949 µM): > 100 nM | IC50 (second compound 0.3 µM): > 100 nM | IC50 (second compound 0.949 µM): > 100 nM | IC50 (second compound 3 µM): > 100 nM | viability, T/C (second compound 0.03 µM, first compound 0.000316 µM): 98.4% | viability, T/C (second compound 0.03 µM, first compound 0.001 µM): 90.7% | viability, T/C [1]: 88.6% | viability, T/C [2]: 85.9% | viability, T/C [3]: 97.3% | viability, T/C [4]: 89.8% | viability, T/C (second compound 0.0949 µM, first compound 0.000316 µM): 89.9% | viability, T/C (second compound 0.0949 µM, first compound 0.001 µM): 100% | viability, T/C [5]: 88.5% | viability, T/C [6]: 82.5% | viability, T/C [7]: 93% | viability, T/C [8]: 85.7% | viability, T/C (second compound 0.3 µM, first compound 0.000316 µM): 89.9% | viability, T/C (second compound 0.3 µM, first compound 0.001 µM): 90.9% | viability, T/C [9]: 93.2% | viability, T/C [10]: 77.5% | viability, T/C [11]: 94.3% | viability, T/C [12]: 97.3% | viability, T/C (second compound 0.949 µM, first compound 0.000316 µM): 89.4% | viability, T/C (second compound 0.949 µM, first compound 0.001 µM): 97.9% | viability, T/C [13]: 97.6% | viability, T/C [14]: 88.9% | viability, T/C [15]: 85.5% | viability, T/C [16]: 95.2% | viability, T/C (second compound 3 µM, first compound 0.000316 µM): 102% | viability, T/C (second compound 3 µM, first compound 0.001 µM): 99.6% | viability, T/C [17]: 105% | viability, T/C [18]: 83.7% | viability, T/C [19]: 89.5% | viability, T/C [20]: 91.5%
